The text below walks through data of patent US12187773B2, “Modified GIP peptide analogues” (Antag Therapeutics ApS, priority 2018, dated 2025).

The structures appear in SMILES notation. Read-outs that look alike come from different tables or passages of the source. *1 amine or outer side, *2 acyl side, *3 side chain or, on linkers, in order; H or OH if unused. Where a SMILES comes first, the peptide text is derived from it. Side-chain parts run from the residue outwards. [ ]: non-standard residue; d: D form. The star is where a group is joined. C16 diacid = O=C(O)CCCCCCCCCCCCCCC(=O)*; γGlu = O=C(O)[C@H](CCC(=O)[*:2])N[*:1]; pGlu = O=C1CC[C@@H](C(=O)O)N1; AEEA = NCCOCCOCC(=O)O

Data set [1] in a line: Elimination half-life (T1/2) estimated in Göttingen minipigs. In kind it is in vivo. On the procedure:
2-3 Göttingen minipigs were subcutaneously administered one of the GIP analogues of the present invention (1-10 nmol/kg, total volume 2-6 mL) and blood samples were collected before and up to 432 hours post subcutaneous administration.) from a central venous catheter. The catheter was flushed with saline and heparin between samples. Blood was collected into cold EDTA tubes, centrifuged and plasma was kept at −20° C. pending analyses.
Concentrations of the acylated GIP(3-30)NH2 or GIP(5-30)NH2 analogues in blood samples from Göttingen minipigs were analyzed by RIA. Analogues' immunoreactivity was determined using antiserum Ab95234, Ab95235, Ab95236, a polyclonal in-house antibody raised in rabbits specific for either the mid region of GIP(1-30)NH2 or amidated C-terminus of GIP(3-30)NH2.
In addition to the hormone analysis, blood concentrations of AT374, 380, 382-385, 392-393 were determined by LC/MS performed by Red Glead Discovery AB, Lund, Sweden. The plasma samples were precipitated by addition of 3 parts ethanol followed by thorough mixing. After centrifugation and dilution of the supernatant, the samples were analyzed by LC-MS/MS and compared with a 9-point calibration curve. The calibration curves were prepared in naïve plasma matrix from Göttingen minipigs.

Data set [2] deals with T1, human GIP receptor (Homo sapiens, UniProt P48546).
T1 sequence (P48546 22-466): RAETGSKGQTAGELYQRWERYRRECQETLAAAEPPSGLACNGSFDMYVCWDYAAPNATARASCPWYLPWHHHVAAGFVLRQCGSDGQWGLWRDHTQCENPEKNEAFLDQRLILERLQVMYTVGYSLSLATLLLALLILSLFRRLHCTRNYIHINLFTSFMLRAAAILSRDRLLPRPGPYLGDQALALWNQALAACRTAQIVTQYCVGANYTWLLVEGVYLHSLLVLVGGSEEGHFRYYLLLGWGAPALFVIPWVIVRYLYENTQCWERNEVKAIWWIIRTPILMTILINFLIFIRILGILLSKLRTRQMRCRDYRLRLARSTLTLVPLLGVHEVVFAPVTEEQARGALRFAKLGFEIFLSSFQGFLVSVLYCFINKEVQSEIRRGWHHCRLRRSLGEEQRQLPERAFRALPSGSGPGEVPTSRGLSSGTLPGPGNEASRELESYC
Description: cAMP antagonism (CisBio cAMP Dynamic 2 HTRF assay). In kind it is cell-based. More on the design: pCMV-Script vector. Conditions: Table 1C, CisBio, HEK-293 cells; for IC50: cAMP antagonism, nM (IC50), agonist GIP1-42 at EC50. The method in brief: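 Four-parameter fits of cAMP dose-response gave pIC50. cAMP fall was quantified by HTRF competition, ratio 665/620 nm after 60 min at room temperature, against a cAMP standard curve.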

The target of data set [3] is T1, human GIP receptor. As to the kind of experiment: cAMP agonism (CisBio cAMP Dynamic 2 HTRF assay). In kind it is cell-based. To be noted: HEK293, read-out: cAMP agonism, % Efficacy, Table 1C, HEK-293 cells. On the procedure:
To test for agonistic properties at the GIP receptor, compounds were diluted and added to cells as described above and incubated for 30 min at 37° C. The resulting increase in intracellular cAMP was determined using the CisBio cAMP Dynamic 2 HTRF Assay Kit as described above.

For data set [4], the target named is T1, human GIP receptor. Description: cAMP accumulation, agonism (DiscoveRx HitHunter cAMP XS assay). In kind it is cell-based. More on the design: host or cells: COS-7 (transient, calcium phosphate; pCMV-Script vector). To be noted: Table 1B; DiscoveRx; COS-7 cells. The method in brief:
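cAMP accumulation measured by HitHunter cAMP XS in COS-7 cells transiently expressing human GIP receptor, after 30 min in HBS with 1 mM IBMX at 37 °C. Antagonists preincubated 10 min before GIP giving 50-80% of maximum, then 20 min more; agonist mode used 30 min ligand exposure.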
In general terms: Changes in cAMP serve as a functional read-out for many G protein-coupled receptors.

Data set [5] has as its target T1, human GIP receptor. As to the kind of experiment: cAMP accumulation, antagonism (DiscoveRx HitHunter cAMP XS assay). More on the design: host or cells: COS-7 (transient, calcium phosphate; pCMV-Script vector). Conditions: for cAMP antagonism, % inhib: COS-7 cells, % inhibition of Emax. In kind it is cell-based. An outline of the steps: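 Transiently transfected COS-7 cells expressing human GIP receptor, pretreated with 1 mM IBMX in HBS 30 min at 37 °C. Agonism: ligand 30 min at 37 °C; antagonism: 10 min antagonist preincubation, then GIP at 50-80% maximal response for 20 min. cAMP measured by HitHunter cAMP XS.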

The mark [6] stands for this setting: sc, Table 1B, species not given, unit h, LC/MS in Göttingen minipig plasma for these IDs, subcutaneous 1-10 nmol/kg, read-out: T½ (converted).
Setting [7] is: cAMP antagonism, nM (IC50), Table 1B, DiscoveRx, transiently transfected COS-7 cells.

As a reminder, the IC50 is the midpoint of a concentration-inhibition curve. As to `CC[C@H](C)[C@H](NC(=O)[C@H](CO)NC(=O)[C@H](Cc1ccc(O)cc1)NC(=O)[C@H](CC(=O)O)NC(=O)[C@H](CO)NC(=O)[C@@H](NC(=O)[C@H](Cc1ccccc1)NC(=O)[C@@H](NC(=O)CNC(=O)[C@@H]1CCC(=O)N1)[C@@H](C)O)[C@@H](C)CC)C(=O)N[C@@H](C)C(=O)N[C@@H](CCSC)C(=O)N[C@@H](CC(=O)O)C(=O)N[C@@H](CCCNC(=N)N)C(=O)N[C@H](C(=O)N[C@@H](CCCCNC(=O)COCCOCCNC(=O)COCCOCCNC(=O)COCCOCCNC(=O)CC[C@H](NC(=O)CCCCCCCCCCCCCCC(=O)O)C(=O)O)C(=O)N[C@@H](CCC(N)=O)C(=O)N[C@@H](CCC(N)=O)C(=O)N[C@@H](CC(=O)O)C(=O)N[C@@H](Cc1ccccc1)C(=O)N[C@H](C(=O)N[C@@H](CC(N)=O)C(=O)N[C@@H](Cc1c[nH]c2ccccc12)C(=O)N[C@@H](CC(C)C)C(=O)N[C@@H](CC(C)C)C(=O)N[C@@H](C)C(=O)N[C@@H](CCC(N)=O)C(=O)N[C@@H](CCCNC(=N)N)C(N)=O)C(C)C)[C@@H](C)CC` [AT380] ([pGlu]GTFISDYSIAMDRIK([AEEA-AEEA-AEEA-γGlu-C16 diacid])QQDFVNWLLAQR-NH2), the half-life was 20 h in data set [1] (Göttingen, minipig, plasma, subcutaneous, Example 1, read-out: T1/2 (converted)) and 20 h in data set [1] (setting [6]). For the same compound, the “cAMP antagonism, % inhib” value amounted to 82% at human GIP receptor [2] and 100% at human GIP receptor [5] (Table 1B, DiscoveRx). Also, the IC50 at human GIP receptor [2] was 85.8 nM; on human GIP receptor [5] (setting [7]), 7 nM. Moreover, on human GIP receptor [3], the Emax was determined as 8%. Moreover, the “cAMP agonism, Emax” value at human GIP receptor [4] was “No Agonism”.

In the case of `CC[C@H](C)[C@H](NC(=O)[C@H](CO)NC(=O)[C@H](Cc1ccc(O)cc1)NC(=O)[C@H](CC(=O)O)NC(=O)[C@H](CO)NC(=O)[C@@H](NC(=O)[C@H](Cc1ccccc1)NC(=O)[C@@H](NC(=O)CNC(=O)[C@@H](N)CCC(=O)O)[C@@H](C)O)[C@@H](C)CC)C(=O)N[C@@H](C)C(=O)N[C@@H](CCSC)C(=O)N[C@@H](CC(=O)O)C(=O)N[C@@H](CCCNC(=N)N)C(=O)N[C@H](C(=O)N[C@@H](CCCCNC(=O)COCCOCCNC(=O)COCCOCCNC(=O)CC[C@H](NC(=O)CCCCCCCCCCCCCCC(=O)O)C(=O)O)C(=O)N[C@@H](CCC(N)=O)C(=O)N[C@@H](CCC(N)=O)C(=O)N[C@@H](CC(=O)O)C(=O)N[C@@H](Cc1ccccc1)C(=O)N[C@H](C(=O)N[C@@H](CC(N)=O)C(=O)N[C@@H](Cc1c[nH]c2ccccc12)C(=O)N[C@@H](CC(C)C)C(=O)N[C@@H](CC(C)C)C(=O)N[C@@H](C)C(=O)N[C@@H](CCC(N)=O)C(=O)N[C@@H](CCCNC(=N)N)C(N)=O)C(C)C)[C@@H](C)CC` [AT374] (H-EGTFISDYSIAMDRIK([AEEA-AEEA-γGlu-C16 diacid])QQDFVNWLLAQR-NH2; N-terminus assumed), in data set [1] (setting [6]), the half-life is 14 h. In addition, the “cAMP antagonism, % inhib” value was 86% at human GIP receptor [2] and 100% on human GIP receptor [5] (Table 1B, DiscoveRx). For the same compound, the IC50 at human GIP receptor [2] was found to be 17.1 nM; on human GIP receptor [5] (IC50-value (GIPR antagonism), Examples 1 and 2, values of Tables 1B and 2), 12 nM. In addition, the Emax at human GIP receptor [3] was determined as 0%. Besides, the “cAMP agonism, Emax” value at human GIP receptor [4] was “No Agonism”.

In the case of `CC[C@H](C)[C@H](NC(=O)[C@H](CO)NC(=O)[C@H](Cc1ccc(O)cc1)NC(=O)[C@H](CC(=O)O)NC(=O)[C@H](CO)NC(=O)[C@@H](NC(=O)[C@H](Cc1ccccc1)NC(=O)[C@@H](NC(=O)CNC(=O)[C@@H](N)CCC(=O)O)[C@@H](C)O)[C@@H](C)CC)C(=O)N[C@@H](C)C(=O)N[C@@H](CCSC)C(=O)N[C@@H](CC(=O)O)C(=O)N[C@@H](CCCNC(=N)N)C(=O)N[C@H](C(=O)N[C@@H](CCCCNC(=O)COCCOCCNC(=O)CC[C@H](NC(=O)CCCCCCCCCCCCCCCCC(=O)O)C(=O)O)C(=O)N[C@@H](CCC(N)=O)C(=O)N[C@@H](CCC(N)=O)C(=O)N[C@@H](CC(=O)O)C(=O)N[C@@H](Cc1ccccc1)C(=O)N[C@H](C(=O)N[C@@H](CC(N)=O)C(=O)N[C@@H](Cc1c[nH]c2ccccc12)C(=O)N[C@@H](CC(C)C)C(=O)N[C@@H](CC(C)C)C(=O)N[C@@H](C)C(=O)N[C@@H](CCC(N)=O)C(=O)N[C@@H](CCCNC(=N)N)C(N)=O)C(C)C)[C@@H](C)CC` [AT376] (HELM PEPTIDE1{E.G.T.F.I.S.D.Y.S.I.A.M.D.R.I.K.Q.Q.D.F.V.N.W.L.L.A.Q.R.[am]}|PEPTIDE2{[O=C(O)CCCCCCCCCCCCCCCCC(=O)[*:2]].[gGlu].[O=C(COCCOCCN[*:1])[*:2]]}$PEPTIDE1,PEPTIDE2,16:R3-3:R2$$$V2.0; N-terminus assumed), the “cAMP antagonism, % inhib” value came to 87% at human GIP receptor [2] and 90% at human GIP receptor [5] (Table 1B, DiscoveRx). For the same compound, the 50% inhibitory concentration (IC50) was determined as 6.81 nM at human GIP receptor [2] and 19 nM at human GIP receptor [5] (setting [7]). For the same compound, the Emax on human GIP receptor [3] was 0%. Besides, the “cAMP agonism, Emax” value at human GIP receptor [4] is recorded as “No Agonism”.

For the compound `CC[C@H](C)[C@H](NC(=O)[C@H](CO)NC(=O)[C@H](Cc1ccc(O)cc1)NC(=O)[C@H](CC(=O)O)NC(=O)[C@H](CO)NC(=O)[C@@H](NC(=O)[C@H](Cc1ccccc1)NC(=O)[C@@H](NC(=O)CNC(=O)CN)[C@@H](C)O)[C@@H](C)CC)C(=O)N[C@@H](C)C(=O)N[C@@H](CCSC)C(=O)N[C@@H](CC(=O)O)C(=O)N[C@@H](CCCNC(=N)N)C(=O)N[C@H](C(=O)N[C@@H](CCCCNC(=O)COCCOCCNC(=O)CC[C@H](NC(=O)CCCCCCCCCCCCCCC(=O)O)C(=O)O)C(=O)N[C@@H](CCC(N)=O)C(=O)N[C@@H](CCC(N)=O)C(=O)N[C@@H](CC(=O)O)C(=O)N[C@@H](Cc1ccccc1)C(=O)N[C@H](C(=O)N[C@@H](CC(N)=O)C(=O)N[C@@H](Cc1c[nH]c2ccccc12)C(=O)N[C@@H](CC(C)C)C(=O)N[C@@H](CC(C)C)C(=O)N[C@@H](C)C(=O)N[C@@H](CCC(N)=O)C(=O)N[C@@H](CCCNC(=N)N)C(N)=O)C(C)C)[C@@H](C)CC` [AT508] (HELM PEPTIDE1{G.G.T.F.I.S.D.Y.S.I.A.M.D.R.I.K.Q.Q.D.F.V.N.W.L.L.A.Q.R.[am]}|PEPTIDE2{[O=C(O)CCCCCCCCCCCCCCC(=O)[*:2]].[gGlu].[O=C(COCCOCCN[*:1])[*:2]]}$PEPTIDE1,PEPTIDE2,16:R3-3:R2$$$V2.0; N-terminus assumed), the “cAMP antagonism, % inhib” value on human GIP receptor [2] amounted to 89%; on human GIP receptor [5] (Table 1B, DiscoveRx), 100%. Besides, at human GIP receptor [3], the Emax is 0%. Also, the “cAMP agonism, Emax” value at human GIP receptor [4] is “No Agonism”. Besides, on human GIP receptor [5] (setting [7]), the IC50 stood at 23 nM.
